Series [1] is described as follows: Compound solubility in water. Conditions: water; for solubility: Compound Solubility in Water.
In series [2] the target is T1, glucocerebrosidase (Gcase) (Homo sapiens, UniProt P04062).
T1 construct: micellar solution containing 10 nM GCase and 100 nM saposin C
T1 sequence (P04062 40-536): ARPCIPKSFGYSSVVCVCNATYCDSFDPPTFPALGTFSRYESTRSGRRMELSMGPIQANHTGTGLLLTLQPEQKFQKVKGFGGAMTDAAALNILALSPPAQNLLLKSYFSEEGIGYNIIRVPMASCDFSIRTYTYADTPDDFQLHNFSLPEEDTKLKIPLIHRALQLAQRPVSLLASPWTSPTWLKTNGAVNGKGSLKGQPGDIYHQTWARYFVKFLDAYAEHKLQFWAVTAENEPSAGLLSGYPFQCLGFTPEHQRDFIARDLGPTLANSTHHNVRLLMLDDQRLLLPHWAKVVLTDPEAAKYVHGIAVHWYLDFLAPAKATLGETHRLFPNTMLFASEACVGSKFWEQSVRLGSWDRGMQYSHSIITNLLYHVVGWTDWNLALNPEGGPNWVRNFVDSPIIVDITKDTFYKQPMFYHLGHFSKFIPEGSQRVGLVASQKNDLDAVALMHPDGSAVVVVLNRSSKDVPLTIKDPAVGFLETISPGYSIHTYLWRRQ
Kind of series: Glucocerebrosidase (Gcase) activation assay, 4-methylumbelliferyl-beta-D-glucopyranoside substrate, fluorescence readout. It counts as biochemical. The conditions noted are these: for Percent Gcase Activation, 0.1 μM Test Compound / activation at 0.1 µM: test compound at 0.1 μM; for activation at 0.1 µM: read-out: Percent Gcase Activation, 0.1 μM Test Compound; for activation at 1 µM: read-out: Percent Gcase Activation, 1 μM Test Compound. Summed up: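 Fluorescence (ex 365 nm, em 440 nm) read after glycine pH 12.5 stop of a 15 min room-temperature reaction. GCase 10 nM plus saposin C 100 nM in PS/triton micelles, pH 4.7, preincubated 30 min with compound; substrate solution held 2 mM 4-MU-beta-glucoside. Screened at 1.0 and 0.1 μM; 8-point, 3-fold curves from 5 μM top.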

In brackets after ≈: the same amount, converted by molar mass.

For the compound `Cc1cc(C)n2ccc(C(=O)NC3CCC(c4cccs4)CC3)c2n1` (centres unmarked) [III-188], the “Compound Solubility in Water” value in series [1] was 1.0 µg/mL. In addition, the “Percent Gcase Activation, 0.1 μM Test Compound” value in series [2] is given as “*** (greater than 20% Gcase activation)”. In series [2] (test compound at 1.0 μM), the “Percent Gcase Activation, 1 μM Test Compound” value is “+++ (Gcase activation greater than 60%)”.
For `Cc1cc(C)n2ccc(C(=O)N[C@H]3CC[C@@H](Oc4cccs4)CC3)c2n1` [III-189], the solubility in series [1] is 1 µg/mL (≈ 2.71 µM). For the same compound, in series [2], the activation at 0.1 µM is over 20%. The activation at 1 µM in series [2] (test compound at 1.0 μM) is over 60%.
For `Cc1cc(C)n2ccc(C(=O)N[C@H]3CC[C@H](Oc4cccs4)CC3)c2n1` [III-190], in that order: 4.2 µg/mL (≈ 11.4 µM), 10 to 20% and over 60%.
As for `Cc1cc(C)n2ccc(C(=O)NC3Cc4ccc(-c5cscn5)cc4C3)c2n1` (centres unmarked) [III-192], in series [1], the concentration in solution (solubility) came to 0.01 µg/mL (≈ 0.0257 µM). The activation at 0.1 µM in series [2] is over 20%. The activation at 1 µM in series [2] (test compound at 1.0 μM) is over 60%.
`Cc1cc(C)n2ccc(C(=O)NC3CCCc4cccnc43)c2n1` (centres unmarked) [III-193] had a solubility in series [1] of 27.2 µg/mL (≈ 84.9 µM). Besides, the activation at 0.1 µM in series [2] is under 10%. For the same compound, the activation at 1 µM in series [2] (test compound at 1.0 μM) is under 30%.
For the compound `C#CCCCO[C@H]1CC[C@H](NC(=O)c2ccn3c(C)cc(C)nc23)CC1` [III-194], the solubility in series [1] came to 4.5 µg/mL (≈ 12.7 µM). For the same compound, the activation at 0.1 µM in series [2] is 10 to 20%. For the same compound, the activation at 1 µM in series [2] (test compound at 1.0 μM) is over 60%.
`Cc1cc(C)n2ccc(C(=O)NC3CCOc4cccc(F)c43)c2n1` (centres unmarked) [III-195] registered a solubility in series [1] of 7 µg/mL (≈ 20.6 µM). In addition, the activation at 0.1 µM in series [2] is over 20%. In series [2] (test compound at 1.0 μM), the activation at 1 µM was over 60%.
On to `Cc1cc(C)n2ccc(C(=O)NC3CCOc4cc(F)ccc43)c2n1` (centres unmarked) [III-196], for which, in series [1], the concentration in solution (solubility) was 4.2 µg/mL (≈ 12.4 µM). Also, the activation at 0.1 µM in series [2] is 10 to 20%. In series [2] (test compound at 1.0 μM), the activation at 1 µM is over 60%.
As for `CCCOCCO[C@H]1CC[C@H](NC(=O)c2ccn3c(C)cc(C)nc23)CC1` [III-197], in series [1], the solubility is 16.9 µg/mL (≈ 45.2 µM). For the same compound, in series [2], the activation at 0.1 µM is under 10%. Moreover, in series [2] (test compound at 1.0 μM), the activation at 1 µM lay within 30 to 60%.
In series [1], `CCCCO[C@H]1C[C@H](NC(=O)c2ccn3c(C)cc(C)nc23)C1` [III-198] gave a solubility of 13.1 µg/mL (≈ 41.5 µM). For the same compound, in series [2], the activation at 0.1 µM fell in the range of 10 to 20%. In addition, in series [2] (test compound at 1.0 μM), the activation at 1 µM was over 60%.
As to `Cc1cc(C)n2ccc(C(=O)NC3CCC(C4CCCO4)CC3)c2n1` (centres unmarked) [III-199], the solubility in series [1] stood at 12.3 µg/mL (≈ 36 µM). In series [2], the activation at 0.1 µM was under 10%. In addition, in series [2] (test compound at 1.0 μM), the activation at 1 µM lay within 30 to 60%.
`Cc1cc(C)n2ccc(C(=O)NC3CCC(C4CCCO4)CC3)c2n1` (centres unmarked) [III-200]: the “Compound Solubility in Water” value in series [1] is 12.4 µg/mL. Further, the “Percent Gcase Activation, 0.1 μM Test Compound” value in series [2] was “* (less than 10% Gcase activation)”.
The compound `CCCCCO[C@H]1CC[C@H](NC(=O)c2ccn3c(C)cc(C)nc23)CC1` [III-201] showed a solubility in series [1] of 0.5 µg/mL (≈ 1.4 µM). Besides, the activation at 0.1 µM in series [2] was over 20%. Moreover, the activation at 1 µM in series [2] (test compound at 1.0 μM) was over 60%.
On to `CCCCCO[C@H]1CC[C@@H](NC(=O)c2ccn3c(C)cc(C)nc23)CC1` [III-202], for which the concentration in solution in series [1] (in water) (solubility) was 3.6 µg/mL (≈ 10.1 µM). Besides, the activation at 0.1 µM in series [2] is over 20%. For the same compound, the activation at 1 µM in series [2] (test compound at 1.0 μM) is over 60%.
For `CCCCCN(C)C(=O)[C@H]1CC[C@H](NC(=O)c2ccn3c(C)cc(C)nc23)CC1` [III-203], in series [1] (in water), the solubility was 17 µg/mL (≈ 42.7 µM). Besides, the activation at 0.1 µM in series [2] was under 10%. The activation at 1 µM in series [2] (test compound at 1.0 μM) lay in the range of 30 to 60%.
With `CCC(F)(F)CN1CCC(NC(=O)c2ccn3c(C)cc(C)nc23)CC1` [III-204], the concentration in solution in series [1] (in water) (solubility) was 21.1 µg/mL (≈ 57.9 µM). In series [2], the activation at 0.1 µM is under 10%. Besides, in series [2] (test compound at 1.0 μM), the activation at 1 µM was under 30%.
Compound `CCC(F)(F)CN1CCC(NC(=O)c2ccn3c(C)cc(C)nc23)C1` (centres unmarked) [III-205] yielded a solubility in series [1] (in water) of 21.3 µg/mL (≈ 60.8 µM). The activation at 0.1 µM in series [2] is under 10%. For the same compound, the activation at 1 µM in series [2] (test compound at 1.0 μM) is under 30%.
Taken in the same sequence, the figures for `Cc1cc(C)n2ccc(C(=O)N[C@H]3CC[C@H](Oc4cccnc4)CC3)c2n1` [III-206] were 4.1 µg/mL (≈ 11.2 µM), under 10% and under 30%.

In general, solubility refers to the concentration that dissolves in the medium under given conditions. A lower solubility goes with little dissolved substance.

The values above are taken from patent US11351173B2, “Substituted pyrrolo[1,2-a]pyrimidines and their use in the treatment of medical disorders” (Bial—R&D Investments, S.A., priority 2014, dated 2022).
